Reference: ChEMBL document CHEMBL5230155, “Recent contributions of quinolines to antimalarial and anticancer drug discovery research” (Eur J Med Chem, 2021)
pIC50, pKd: −log10 of the molar value. Values after ≈ are worked out from the molar mass of the structure shown.

Columns and labels:
A2780 = assay: Induction of apoptosis in human A2780 cells assessed as accumulation at G2/M phase at 5 uM (reference value: 10%); assay type: functional
MCF7 [1] = assay: Induction of apoptosis in human MCF7 cells assessed as accumulation at G2/M phase at 10 uM (reference value: 10%); assay type: functional
HepG2 [2] = assay: Cytotoxicity against human HepG2 cells; assay type: functional, cell-based
HCT-116 = assay: Cytotoxicity against human HCT-116 cells; assay type: functional, cell-based
[3] = molecular target: Epidermal growth factor receptor (Homo sapiens, UniProt P00533); assay: Inhibition of EGFR (unknown origin)
MCF7 [4] = assay: Antiproliferative activity against human MCF7 cells; assay type: functional, cell-based
[5] = molecular target: Prostaglandin G/H synthase 2 (Homo sapiens, UniProt P35354)
Description: Inhibition of COX-2 (unknown origin)

G-361 = assay: Antiproliferative activity against human G-361 cells; assay type: functional, cell-based
RPMI-8226 = assay: Cytotoxicity against human RPMI-8226 cells; assay type: functional, cell-based
Hep 3B2 [6] = assay: Cytotoxicity against human Hep3B cells; assay type: functional, cell-based
[7] = Cytotoxicity against human SLMT-1 cells
[8] = molecular target: Cathepsin B (Homo sapiens) (UniProt P07858); assay: Inhibition of human cathepsin B endopeptidase activity at 50 uM relative to control
Hep 3B2 [9] = assay: Cytotoxicity against human Hep3B cells assessed as relative value at 15 uM after 48 hrs by MTS method; assay type: functional
PC-3 [10] = assay: Antiproliferative activity against human PC-3 cells; assay type: functional, cell-based
KG-1 = assay: Cytotoxicity against human KG-1 cells; assay type: functional, cell-based
U-937 = assay: Cytotoxicity against human U-937 cells; assay type: functional, cell-based
Raji = assay: Cytotoxicity against human Raji cells; assay type: functional, cell-based
MDA-MB-231 = assay: Cytotoxicity against human MDA-MB-231 cells; assay type: functional, cell-based
MDA-MB-453 = assay: Antiproliferative activity against human MDA-MB-453 cells; assay type: functional, cell-based
SNU-423 = assay: Antiproliferative activity against human SNU-423 cells; assay type: functional, cell-based
RT-112 = assay: Antiproliferative activity against human RT-112 cells; assay type: functional, cell-based
UMUC3 = assay: Antiproliferative activity against human UMUC3 cells; assay type: functional, cell-based
RT-4 = assay: Antiproliferative activity against human RT-4 cells; assay type: functional, cell-based
T-24 = assay: Antiproliferative activity against human T24 cells; assay type: functional, cell-based
Tubulin = assay: Inhibition of tubulin polymerization (unknown origin); assay type: protein-complex assay, Homo sapiens
Plasmodium falciparum [11] = assay: Antimalarial activity against CQ-sensitive Plasmodium falciparum 3D7; assay type: functional, organism-based
Plasmodium falciparum [12] = assay: Antimalarial activity against CQ-resistant Plasmodium falciparum W2; assay type: functional, organism-based
Plasmodium falciparum [13] = assay: Selectivity index, ratio of IC50 for Chloroquine resistant Plasmodium falciparum W2 to IC50 for Chloroquine sensitive Plasmodium falciparum 3D7; assay type: functional
Plasmodium falciparum [14] = assay: Antimalarial activity against CQ-resistant Plasmodium falciparum RKL9; assay type: functional, organism-based
Plasmodium berghei [15] = assay: Antiplasmodial activity against Plasmodium berghei infected in mouse assessed as reduction in parasitaemia at 200 mg/kg/day, ip administered for 4 days; assay type: functional; set-up: scale not given: the % may be the effect or the level left; conditions: time 4 day
SMMC-7721 = assay: Cytotoxicity against human SMMC-7721 cells; assay type: functional, cell-based
Huh-7 = assay: Cytotoxicity against human Huh-7 cells; assay type: functional, cell-based
[16] = Cytotoxicity against human L02 cells; assay type: toxicity, cell-based
[17] = Cytotoxicity against human MRC5 cells; assay type: toxicity, cell-based
SK-OV-3 = assay: Antiproliferative activity against human SK-OV-3 cells; assay type: functional, cell-based
NCI-H460 = assay: Antiproliferative activity against human NCI-H460 cells; assay type: functional, cell-based
BEL-7404 tumor cell line = assay: Antiproliferative activity against human BEL-7404 cells; assay type: functional, cell-based
MGC-803 = assay: Antiproliferative activity against human MGC-803 cells
MV4-11 = assay: Antiproliferative activity against human MV4-11 cells; assay type: functional, cell-based
[18] = molecular target: Histone-lysine N-methyltransferase, H3 lysine-79 specific (Homo sapiens, UniProt Q8TEK3); assay: Inhibition of DOT1L (unknown origin)
Plasmodium berghei [19] = assay: Antiplasmodial activity against Plasmodium berghei infected in mouse assessed as reduction in parasitaemia at 35 umol/kg, sc administered for 4 days; assay type: functional; set-up: scale not given: the % may be the effect or the level left; conditions: dose 35 µmol/kg, time 4 day
Plasmodium berghei [20] = assay: Antiplasmodial activity against Plasmodium berghei infected in mouse assessed as reduction in parasitaemia at 105 umol/kg, po; assay type: functional; set-up: scale not given: the % may be the effect or the level left; conditions: dose 105 µmol/kg
Hemozoin = assay: Inhibition of beta-hematin formation
Plasmodium berghei [21] = assay: Inhibition of hemozoin formation in Plasmodium berghei infected in mouse; assay type: functional
[22] = molecular target: Serine/threonine-protein kinase mTOR (Homo sapiens, UniProt P42345); assay: Inhibition of mTOR (unknown origin)
[23] = molecular target: Dual specificity mitogen-activated protein kinase kinase 1 (Homo sapiens, UniProt Q02750); assay: Inhibition of MEK1 (unknown origin)
[24] = Binding affinity to human nRNP
HeLa = assay: Antitumor activity against human HeLa cells xenografted in mouse assessed as reduction in tumor weight at 20 mg/kg/day, ip for 3 weeks; assay type: functional; set-up: scale not given: the % may be the effect or the level left
Plasmodium falciparum [25] = assay: Antimalarial activity against multidrug resistant Plasmodium falciparum Dd2; assay type: functional, organism-based
Plasmodium falciparum [26] = assay: Antimalarial activity against CQ-sensitive Plasmodium falciparum D6; assay type: functional, organism-based
Plasmodium falciparum [27] = assay: Antimalarial activity against CQ-resistant Plasmodium falciparum 7G8; assay type: functional, organism-based
Lymphocyte = assay: Cytotoxicity against mouse spleen lymphocytes; assay type: toxicity, cell-based
CWR22R = assay: Antiproliferative activity against human 22Rv1 cells; assay type: functional, cell-based
LNCaP C4-2B = assay: Antiproliferative activity against human LNCaP C4-2B cells; assay type: functional, cell-based
DU-145 = assay: Antiproliferative activity against human DU-145 cells; assay type: functional, cell-based
PC-3 [28] = assay: Antitumor activity against human PC-3 cells xenografted in nude mouse assessed as cell growth inhibition at 50 mg/kg/day, ig administered for 21 days; assay type: functional; set-up: scale not given: the % may be the effect or the level left; conditions: time 21 day
PC-3 [29] = assay: Antitumor activity against human PC-3 cells xenografted in nude mouse assessed as cell growth inhibition at 100 mg/kg/day, ig administered for 21 days; assay type: functional; set-up: scale not given: the % may be the effect or the level left; conditions: time 21 day
HepG2 [30] = assay: Antitumor activity against human HepG2 cells xenografted in nude mouse assessed as reduction in tumor increment rate at 20 mg/kg/day (reference value: 100%); assay type: functional; set-up: scale not given: the % may be the effect or the level left
HepG2 [31] = assay: Antitumor activity against human HepG2 cells xenografted in nude mouse assessed as reduction in tumor increment rate at 5 mg/kg/day (reference value: 100%); assay type: functional; set-up: scale not given: the % may be the effect or the level left

Chain of Histone-lysine N-methyltransferase, H3 lysine-79 specific (Q8TEK3 whole entry): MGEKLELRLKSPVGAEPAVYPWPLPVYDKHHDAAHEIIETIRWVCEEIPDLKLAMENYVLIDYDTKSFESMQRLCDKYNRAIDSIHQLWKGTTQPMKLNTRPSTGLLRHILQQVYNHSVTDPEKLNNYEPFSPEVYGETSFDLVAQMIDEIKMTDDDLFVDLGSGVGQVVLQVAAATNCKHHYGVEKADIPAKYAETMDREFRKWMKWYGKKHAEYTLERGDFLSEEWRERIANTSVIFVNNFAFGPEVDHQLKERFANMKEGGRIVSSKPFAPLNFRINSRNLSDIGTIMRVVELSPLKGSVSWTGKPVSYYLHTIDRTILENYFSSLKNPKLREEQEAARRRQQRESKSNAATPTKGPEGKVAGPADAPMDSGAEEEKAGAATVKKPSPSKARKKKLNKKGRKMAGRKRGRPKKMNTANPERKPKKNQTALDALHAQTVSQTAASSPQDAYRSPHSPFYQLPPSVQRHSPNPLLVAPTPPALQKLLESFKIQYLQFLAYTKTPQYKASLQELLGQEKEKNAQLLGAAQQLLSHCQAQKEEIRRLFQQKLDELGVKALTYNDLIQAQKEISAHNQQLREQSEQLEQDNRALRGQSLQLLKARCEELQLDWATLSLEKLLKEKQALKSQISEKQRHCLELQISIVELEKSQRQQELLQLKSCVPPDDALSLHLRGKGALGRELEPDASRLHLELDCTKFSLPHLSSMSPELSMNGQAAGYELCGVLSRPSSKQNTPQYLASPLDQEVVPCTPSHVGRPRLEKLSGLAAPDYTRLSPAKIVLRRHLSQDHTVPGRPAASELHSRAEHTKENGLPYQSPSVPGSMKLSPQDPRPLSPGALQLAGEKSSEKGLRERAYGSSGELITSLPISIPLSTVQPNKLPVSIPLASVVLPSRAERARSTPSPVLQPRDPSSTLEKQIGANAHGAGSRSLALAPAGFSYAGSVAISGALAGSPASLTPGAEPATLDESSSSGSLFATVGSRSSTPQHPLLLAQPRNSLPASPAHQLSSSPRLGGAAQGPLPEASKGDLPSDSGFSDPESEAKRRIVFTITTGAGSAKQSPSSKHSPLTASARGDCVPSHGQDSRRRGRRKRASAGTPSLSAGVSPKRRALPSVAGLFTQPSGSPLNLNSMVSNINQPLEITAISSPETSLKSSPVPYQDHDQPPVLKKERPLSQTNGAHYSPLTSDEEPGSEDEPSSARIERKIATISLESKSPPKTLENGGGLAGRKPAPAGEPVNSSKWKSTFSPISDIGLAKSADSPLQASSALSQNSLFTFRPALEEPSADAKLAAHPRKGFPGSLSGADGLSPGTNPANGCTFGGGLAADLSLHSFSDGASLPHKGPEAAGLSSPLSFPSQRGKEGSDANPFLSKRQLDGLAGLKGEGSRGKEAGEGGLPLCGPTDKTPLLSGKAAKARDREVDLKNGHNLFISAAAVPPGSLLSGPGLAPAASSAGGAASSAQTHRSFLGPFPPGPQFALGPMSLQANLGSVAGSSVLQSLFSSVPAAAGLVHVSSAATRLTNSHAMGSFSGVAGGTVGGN
Chain of Epidermal growth factor receptor (P00533 whole entry): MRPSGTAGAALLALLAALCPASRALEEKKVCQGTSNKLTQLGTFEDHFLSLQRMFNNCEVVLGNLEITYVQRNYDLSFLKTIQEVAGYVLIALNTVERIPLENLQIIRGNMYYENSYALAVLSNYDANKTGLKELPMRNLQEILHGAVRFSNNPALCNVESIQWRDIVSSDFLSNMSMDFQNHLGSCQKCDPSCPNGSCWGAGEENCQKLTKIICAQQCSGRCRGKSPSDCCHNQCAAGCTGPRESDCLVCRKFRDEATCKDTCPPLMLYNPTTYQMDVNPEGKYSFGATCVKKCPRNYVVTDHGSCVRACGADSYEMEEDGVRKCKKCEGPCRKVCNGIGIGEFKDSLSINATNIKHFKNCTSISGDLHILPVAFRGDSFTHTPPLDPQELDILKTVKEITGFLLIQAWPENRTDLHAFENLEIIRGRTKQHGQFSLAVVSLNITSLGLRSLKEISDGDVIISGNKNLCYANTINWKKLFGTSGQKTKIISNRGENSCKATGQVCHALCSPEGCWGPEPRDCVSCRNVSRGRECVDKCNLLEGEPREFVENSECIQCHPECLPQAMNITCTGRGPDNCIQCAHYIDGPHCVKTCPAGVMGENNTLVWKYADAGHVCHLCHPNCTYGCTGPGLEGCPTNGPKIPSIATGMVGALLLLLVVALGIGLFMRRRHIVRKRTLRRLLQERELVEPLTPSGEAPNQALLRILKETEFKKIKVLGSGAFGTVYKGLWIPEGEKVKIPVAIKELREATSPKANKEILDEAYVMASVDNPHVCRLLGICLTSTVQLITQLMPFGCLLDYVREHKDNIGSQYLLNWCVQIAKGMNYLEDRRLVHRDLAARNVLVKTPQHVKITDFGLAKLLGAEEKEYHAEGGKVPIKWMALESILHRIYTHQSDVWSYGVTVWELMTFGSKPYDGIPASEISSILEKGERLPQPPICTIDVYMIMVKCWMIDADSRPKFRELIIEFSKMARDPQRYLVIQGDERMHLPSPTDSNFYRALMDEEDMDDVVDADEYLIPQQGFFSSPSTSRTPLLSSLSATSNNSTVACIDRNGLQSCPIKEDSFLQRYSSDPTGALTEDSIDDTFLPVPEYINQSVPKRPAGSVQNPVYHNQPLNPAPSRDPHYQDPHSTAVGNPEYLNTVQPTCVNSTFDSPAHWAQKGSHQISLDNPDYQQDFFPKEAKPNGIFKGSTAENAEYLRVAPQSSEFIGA
Chain of Prostaglandin G/H synthase 2 (P35354 whole entry): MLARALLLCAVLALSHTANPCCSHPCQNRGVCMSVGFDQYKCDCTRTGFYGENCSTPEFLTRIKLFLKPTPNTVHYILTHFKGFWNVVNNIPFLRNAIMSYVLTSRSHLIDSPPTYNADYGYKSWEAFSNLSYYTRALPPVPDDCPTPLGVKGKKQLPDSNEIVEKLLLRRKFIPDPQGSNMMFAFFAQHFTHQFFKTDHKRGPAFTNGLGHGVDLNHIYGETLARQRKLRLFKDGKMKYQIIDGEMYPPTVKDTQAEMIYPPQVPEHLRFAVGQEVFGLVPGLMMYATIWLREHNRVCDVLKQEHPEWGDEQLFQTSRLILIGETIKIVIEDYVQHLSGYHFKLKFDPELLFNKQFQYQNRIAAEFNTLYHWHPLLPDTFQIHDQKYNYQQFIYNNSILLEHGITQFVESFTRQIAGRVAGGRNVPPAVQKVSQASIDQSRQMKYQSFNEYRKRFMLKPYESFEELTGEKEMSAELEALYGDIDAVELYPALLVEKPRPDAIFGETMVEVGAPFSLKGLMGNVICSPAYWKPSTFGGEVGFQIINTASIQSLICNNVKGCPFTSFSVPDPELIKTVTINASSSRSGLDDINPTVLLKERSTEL
Chain of Dual specificity mitogen-activated protein kinase kinase 1 (Q02750 whole entry): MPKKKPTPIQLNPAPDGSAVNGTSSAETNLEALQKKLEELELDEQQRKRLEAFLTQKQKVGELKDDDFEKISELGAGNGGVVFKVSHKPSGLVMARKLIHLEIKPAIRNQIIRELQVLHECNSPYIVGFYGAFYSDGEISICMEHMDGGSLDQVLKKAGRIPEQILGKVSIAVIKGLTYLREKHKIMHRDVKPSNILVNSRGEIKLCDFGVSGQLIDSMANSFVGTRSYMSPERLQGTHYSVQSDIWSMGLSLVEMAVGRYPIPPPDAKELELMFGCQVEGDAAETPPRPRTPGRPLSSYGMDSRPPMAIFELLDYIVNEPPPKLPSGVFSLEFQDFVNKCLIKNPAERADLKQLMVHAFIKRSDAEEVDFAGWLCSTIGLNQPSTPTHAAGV

## COc1cc(C(=O)/C=C/c2c(Cl)nc3c(C(=O)c4ccccc4)cccc3c2OC)cc(OC)c1OC
A2780
  Activity: 50%
MCF7 [1]
  Activity: 50%

## Cc1ccc2nc(/C=C/c3ccc(N(C)C)cc3)cc(-c3nnc(N)s3)c2c1
HepG2 [2]; Homo sapiens, HepG2
  IC50: 7.7 µg/mL
HCT-116
  IC50: 7.7 µg/mL
[3]
  pIC50: 5.95

## COc1ccc2ccc(F)c(CC(=O)N/N=C/c3cccc(C(F)(F)F)c3)c2n1
MCF7 [4]; Homo sapiens, MCF7
  pIC50: 5.68
[5]
  pIC50: 6.89
G-361; read-out: IC50
  pIC50: 5.68

## COc1cccc2c1C(=O)c1c(O)c3c(c(O)c1C2=O)C[C@@](O)(C(=O)CO)C[C@@H]3O[C@H]1C[C@H](N)[C@H](O)[C@H](C)O1 [DOXORUBICIN]
HCT-116
  pIC50: 6.39
MCF7 [4]; mcf7
  pIC50: 5.70
RPMI-8226
  pIC50: 6.39
Hep 3B2 [6]
  pIC50: 6.57
[7]
  pIC50: 6.57
G-361
  pIC50: 5.61

## O=[N+]([O-])c1ccc(O)c2ncccc12
[8]
  inhibition: 27.7%

## O=S(=O)(Nc1cccc2cccnc12)c1cccc2cccnc12
MCF7 [4]; Homo sapiens, MCF7
  pIC50: 5.91
Hep 3B2 [9]
  fold change (FC): 0.23
Hep 3B2 [6]
  pIC50: 5.91
[7]
  pIC50: 5.91

## O=C(Nc1ccc(NC(=O)c2ccc(Nc3ccnc4ccccc34)cc2)cc1)OCc1ccccc1
PC-3 [10]
  pIC50: 6.52
KG-1
  pIC50: 6.52
U-937
  pIC50: 6.52
Raji
  pIC50: 6.52
MDA-MB-231
  pIC50: 6.52

## COc1cc(N(CCCSC(=S)N2CCN(C(C)=O)CC2)S(=O)(=O)c2cccc3cccnc23)cc(OC)c1OC
MDA-MB-453
  pIC50: 6.15
SNU-423
  pIC50: 6.15
RT-112
  pIC50: 6.15
UMUC3
  pIC50: 6.05
RT-4
  pIC50: 5.72
T-24
  pIC50: 5.59
Tubulin
  pIC50: 5.54

## CN1CCN(CCNCc2ccc(-c3cc(-c4ccc(CNCCN5CCN(C)CC5)cc4)c4ccccc4n3)cc2)CC1
Plasmodium falciparum [11]
  pIC50: 5.62
Plasmodium falciparum [12]
  pIC50: 6.89
Plasmodium falciparum [13]
  Ratio IC50: 20

## Cc1cc(Nc2ccc(NC(=O)c3ccc(Nc4ccnc5ccccc45)cc3)cc2)nc(N)n1
PC-3 [10]
  pIC50: 5.77
KG-1
  pIC50: 5.77
Raji
  pIC50: 5.77
MDA-MB-231
  pIC50: 5.77

## Cc1ccc(/C=C2/SC(c3ccc(Cl)cc3)N(Nc3cc(C)c4ccccc4n3)C2=O)cc1 (configuration not stated)
Plasmodium falciparum [11]
  IC50: 0.423 µg/mL
Plasmodium falciparum [14]
  IC50: 0.824 µg/mL (≈ 1.75 µM)
Plasmodium berghei [15]
  Activity: 73.4%

## COc1ccc(/C=N/NC(=O)c2ccc(Nc3ccnc4ccccc34)cc2)cc1OC
HepG2 [2]; Homo sapiens, HepG2
  pIC50: 3.90
SMMC-7721
  pIC50: 5.20
Huh-7
  pIC50: 5.20
[16]
  pIC50: 4.79
[17]
  pIC50: 4.79

## O=c1[nH]cc(F)c(=O)[nH]1 [FLUOROURACIL]
HepG2 [2]; Homo sapiens, HepG2
  IC50: 5.3 µg/mL
HepG2 [2]; hepg2
  pIC50: 4.58
HCT-116
  IC50: 5.3 µg/mL
SK-OV-3
  pIC50: 4.58
NCI-H460
  pIC50: 4.58
BEL-7404 tumor cell line
  pIC50: 4.58
MDA-MB-453
  pIC50: 5.13
SNU-423
  pIC50: 5.13
RT-112
  pIC50: 5.13
MGC-803
  pIC50: 4.98
PC-3 [10]
  pIC50: 4.98

## CCN(CCNC(=O)Nc1ccc(C(C)(C)C)cc1)c1nc(C)cc(Nc2ccc3nc(C)cc(N)c3c2)n1
MV4-11
  pIC50: 5.79
[18]
  pIC50: 5.24

## C[C@@H]1CCC2[C@@H](C)[C@H](OC(=O)CCC(=O)OCCNc3ccnc4cc(Cl)ccc34)O[C@@H]3O[C@@]4(C)CC[C@@H]1[C@@]23OO4 (some centres not stated)
Plasmodium berghei [19]
  Activity: 95.2%
Plasmodium berghei [20]
  Activity: 78.6%
Hemozoin
  pIC50: 3.25
Plasmodium berghei [21]
  inhibition (INH): 71.9%

## Cc1c(Cc2cccc(N(C)S(=O)(=O)CCCNCCCC(=O)N3CCN(c4ccc(Nc5c(C(N)=O)cnc6ccc(-c7cnc8ccccc8c7)cc56)cc4C(F)(F)F)CC3)c2)c(=O)oc2cc(OC(=O)N(C)C)ccc12
HCT-116
  GI50: 4660 nM
[22]
  pIC50: 6.72
[23]
  pIC50: 6.01

## COc1ccc(C(=O)/C=C/c2cc(N3CCOCC3)c3cc([N+](=O)[O-])ccc3n2)cc1
[24]
  pKd: 5.34
HeLa
  Activity: 69.3%

## Cc1cc(Nc2ccc3nc(C)cc(N)c3c2)nc(NCCCCCCNC(=O)Nc2cc(C(F)(F)F)cc(C(F)(F)F)c2)n1
MV4-11
  pIC50: 5.89
[18]
  pIC50: 5.45

## Clc1ccc2c(NCCCN3CCC(Nc4ccnc5cc(Cl)ccc45)CC3)ccnc2c1
Plasmodium falciparum [25]
  pIC50: 9.44
Plasmodium falciparum [26]
  pIC50: 9.82
Plasmodium falciparum [27]
  pIC50: 9.48
Lymphocyte
  LC50: 190 nM

## COc1cc(N(CCSC(=S)N2CCN(CCO)CC2)S(=O)(=O)c2cccc3cccnc23)cc(OC)c1OC
Tubulin
  pIC50: 5.40
PC-3 [10]
  pIC50: 6.37
CWR22R
  pIC50: 6.17
LNCaP C4-2B
  pIC50: 6.17
DU-145
  pIC50: 6.17
PC-3 [28]
  Activity: 35.6%
PC-3 [29]
  Activity: 61.4%

## Cc1cc2nc(-c3cc4ccccc4nc3Cl)[nH]c2cc1C
HepG2 [2]; Homo sapiens, HepG2
  pIC50: 5.12
SK-OV-3
  pIC50: 5.12
NCI-H460
  pIC50: 5.12
BEL-7404 tumor cell line
  pIC50: 5.12
HepG2 [30]
  Activity: 19.5%

## CC(=O)O[C@H]1C(=O)[C@@]2(C)[C@H]([C@H](OC(=O)c3ccccc3)[C@]3(O)C[C@H](OC(=O)[C@H](O)[C@@H](NC(=O)c4ccccc4)c4ccccc4)C(C)=C1C3(C)C)[C@]1(OC(C)=O)CO[C@@H]1C[C@@H]2O [PACLITAXEL]
HepG2 [31]
  Activity: 19%
